From US11384055B2 (BIOMARIN PHARMACEUTICAL INC., priority 2017, dated 2022)

Target: T1, Human GO (Homo sapiens, UniProt Q9UJM8)
T1 construct: purchased Novus Biologicals NBP1-72412
T1 sequence (Q9UJM8 1-370): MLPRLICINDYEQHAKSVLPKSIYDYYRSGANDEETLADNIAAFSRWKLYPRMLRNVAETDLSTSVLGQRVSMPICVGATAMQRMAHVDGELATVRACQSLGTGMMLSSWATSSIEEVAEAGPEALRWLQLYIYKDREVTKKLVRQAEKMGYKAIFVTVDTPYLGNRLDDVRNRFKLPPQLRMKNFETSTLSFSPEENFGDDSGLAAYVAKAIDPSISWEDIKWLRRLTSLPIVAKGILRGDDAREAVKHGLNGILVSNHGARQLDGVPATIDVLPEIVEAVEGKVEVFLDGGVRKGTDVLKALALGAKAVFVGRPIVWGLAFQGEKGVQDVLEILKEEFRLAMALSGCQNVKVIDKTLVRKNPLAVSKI
Test: GO enzymatic assay (coupled fluorescence/HRP assay, glycolate substrate)
Format: biochemical
Conditions: Table 2; read-out: Range (range of IC50 values calculated from the enzymatic assays)
In short: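 Coupled HRP/fluorescence read-out of glycolate oxidation by human GO in 50 mM potassium phosphate buffer (pH 7). Inhibitors added across a concentration range.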

Row | Compound | IC50 [nM]
1 | CN1CCCc2cc(-c3ccc(Sc4nn[nH]c4C(=O)O)cc3)ccc21 [Compound 175, 4-((4-(1-methyl-1,2,3,4-tetrahydroquinolin-6-yl)phenyl)thio)-1H-1,2,3-triazole-5-carboxylic acid 2,2,2-trifluoroacetate] | < 100
2 | O=C(O)c1[nH]nnc1SCc1ccc(Cl)c(Cl)c1 [Compound 176, 4-((3,4-dichlorobenzyl)thio)-1H-1,2,3-triazole-5-carboxylic acid] | < 100
3 | O=C(O)c1[nH]nnc1SCc1ccc(-c2ccc(OC(F)(F)F)cc2)cc1 [Compound 177] | < 100
4 | O=C(O)c1[nH]nnc1CNc1ccc2cc(Cl)ccc2c1 [Compound 178, 4-(((6-chloronaphthalen-2-yl)amino)methyl)-1H-1,2,3-triazole-5-carboxylic acid 2,2,2-trifluoroacetate] | < 100
5 | CN(Cc1nn[nH]c1C(=O)O)c1ccc(Cl)c(Cl)c1 [Compound 179, 4-(((3,4-dichlorophenyl)(methyl)amino)methyl)-1H-1,2,3-triazole-5-carboxylic acid 2,2,2-trifluoroacetate] | < 100
6 | CN(Cc1nn[nH]c1C(=O)O)c1ccc2cc(Cl)ccc2c1 [Compound 180, 4-(((6-chloronaphthalen-2-yl)(methyl)amino)methyl)-1H-1,2,3-triazole-5-carboxylic acid 2,2,2-trifluoroacetate] | < 100
7 | O=C(O)c1[nH]nnc1Nc1ccc(-c2ccc(Cl)cc2)c(Cl)c1 [Compound 181, 4-((2,4′-dichloro-[1,1′-biphenyl]-4-yl)amino)-1H-1,2,3-triazole-5-carboxylic acid] | < 100
8 | O=C(O)c1[nH]nnc1NCc1ccc2cc(Cl)ccc2c1 [Compound 182, 4-(((6-chloronaphthalen-2-yl)methyl)amino)-1H-1,2,3-triazole-5-carboxylic acid] | 100 to 1000
9 | O=C(O)c1[nH]nnc1Nc1ccc(-c2ccc(C(F)(F)F)cc2)cc1 [Compound 183, 4-((4′-(trifluoromethyl)-[1,1′-biphenyl]-4-yl)amino)-1H-1,2,3-triazole-5-carboxylic acid] | < 100
10 | CCN(Cc1nn[nH]c1C(=O)O)c1ccc(Cl)c(Cl)c1 [Compound 185, 4-(((3,4-dichlorophenyl)(ethyl)amino)methyl)-1H-1,2,3-triazole-5-carboxylic acid] | 100 to 1000
11 | O=C(O)c1[nH]nnc1Nc1cnc2cc(Cl)ccc2c1 [Compound 186, 4-((7-chloroquinolin-3-yl)amino)-1H-1,2,3-triazole-5-carboxylic acid] | 1000 to 10000
12 | CCN(Cc1nn[nH]c1C(=O)O)c1ccc2cc(Cl)ccc2c1 [Compound 187, 4-(((6-chloronaphthalen-2-yl)(ethyl)amino)methyl)-1H-1,2,3-triazole-5-carboxylic acid] | 100 to 1000
13 | O=C(O)c1[nH]nnc1CN1CCCc2cc(Cl)ccc21 [Compound 188, 4-((6-chloro-3,4-dihydroquinolin-1(211)-yl)methyl)-1H-1,2,3-triazole-5-carboxylic acid] | 1000 to 10000
14 | CCN(Cc1nn[nH]c1C(=O)O)c1ccc(-c2ccc(OC(F)(F)F)cc2)cc1 [Compound 189, 4-((ethyl(4′-(trifluoromethoxy)-[1,1′-biphenyl]-4-yl)amino)methyl)-1H-1,2,3-triazole-5-carboxylic acid 2,2,2-trifluoroacetate] | 100 to 1000
15 | O=C(O)c1[nH]nnc1NC1Cc2cc(Cl)c(Cl)cc2C1 [Compound 190, 4-((5,6-dichloro-2,3-dihydro-1H-inden-2-yl)amino)-1H-1,2,3-triazole-5-carboxylic acid 2,2,2-trifluoroacetate] | 100 to 1000
16 | O=C(O)c1[nH]nnc1CN(Cc1ccccc1)c1ccc(C2CCCCC2)cc1 [Compound 194, 4-((benzyl(4-cyclohexylphenyl)amino)methyl)-1H-1,2,3-triazole-5-carboxylic acid] | 1000 to 10000
17 | O=C(O)c1[nH]nnc1CN(Cc1ccc(OC(F)(F)F)cc1)c1ccc(Cl)cc1 [Compound 195, 4-(((4-chlorophenyl)(4-(trifluoromethoxy)benzyl)amino)methyl)-1H-1,2,3-triazole-5-carboxylic acid] | 100 to 1000
18 | O=C(O)c1[nH]nnc1CN(Cc1ccccc1)c1ccc(-c2ccc(OC(F)(F)F)cc2)cc1 [Compound 196, 4-((benzyl(4′-(trifluoromethoxy)-[1,1′-biphenyl]-4-yl)amino)methyl)-1H-1,2,3-triazole-5-carboxylic acid 2,2,2-trifluoroacetate] | 100 to 1000
19 | O=C(O)c1[nH]nnc1C(F)(F)c1ccc(-c2ccc(Cl)cc2)c(Cl)c1 [Compound 197, 4-((2,4′-dichloro-[1,1′-biphenyl]-4-yl)difluoromethyl)-1H-1,2,3-triazole-5-carboxylic acid 2,2,2-trifluoroacetate] | < 100

Row | Compound | IC50 [nM]
20 | O=C(O)c1[nH]nnc1C(F)(F)c1ccc(-c2ccc(OC(F)(F)F)cc2)cc1 [Compound 198, 4-(difluoro(4′-(trifluoromethoxy)-[1,1′-biphenyl]-4-yl)methyl)-1H-1,2,3-triazole-5-carboxylic acid 2,2,2-trifluoroacetate] | < 100
21 | O=C(O)c1[nH]nnc1C(F)(F)c1ccc2cc(Cl)ccc2c1 [Compound 199, 4-((6-chloronaphthalen-2-yl)difluoromethyl)-1H-1,2,3-triazole-5-carboxylic acid] | < 100
22 | O=C(O)c1[nH]nnc1C(F)(F)c1ccc(-c2ccc(Cl)cc2)cc1 [Compound 200, 4-((4′-chloro-[1,1′-biphenyl]-4-yl)difluoromethyl)-1H-1,2,3-triazole-5-carboxylic acid 2,2,2-trifluoroacetate] | < 100
23 | O=C(O)c1[nH]nnc1C(F)(F)c1ccc(-c2ccc(Cl)c(Cl)c2)cc1 [Compound 201, 4-((3′,4′-dichloro-[1,1′-biphenyl]-4-yl)difluoromethyl)-1H-1,2,3-triazole-5-carboxylic acid 2,2,2-trifluoroacetate] | < 100
24 | O=C(O)c1[nH]nnc1-c1ccc(-c2ccc(Cl)cc2)c(OC(F)(F)F)c1 [Compound 203, 4-(4′-chloro-2-(trifluoromethoxy)-[1,1′-biphenyl]-4-yl)-1H-1,2,3-triazole-5-carboxylic acid] | < 100
25 | CC(C)C(=O)OCOC(=O)c1[nH]nnc1-c1ccc2cc(Cl)ccc2n1 [Compound 204, (isobutyryloxy)methyl 4-(6-chloroquinolin-2-yl)-1H-1,2,3-triazole-5-carboxylate] | 1000 to 10000
26 | CC(C)N1CCCc2cc(-c3nn[nH]c3C(=O)O)ccc21 [Compound 206, 4-(1-isopropyl-1,2,3,4-tetrahydroquinolin-6-yl)-1H-1,2,3-triazole-5-carboxylic acid 2,2,2-trifluoroacetate] | 1000 to 10000
27 | O=C(O)c1[nH]nnc1-c1cc(Cl)c(Cl)cn1 [Compound 207, 4-(4,5-dichloropyridin-2-yl)-1H-1,2,3-triazole-5-carboxylic acid] | 100 to 1000
28 | O=C(O)c1[nH]nnc1-c1ccc(Cl)cn1 [Compound 208, 4-(5-chloropyridin-2-yl)-1H-1,2,3-triazole-5-carboxylic acid 2,2,2-trifluoroacetate] | 100 to 1000
29 | CC(=O)NCCOc1ccc(-c2nn[nH]c2C(=O)O)cc1 [Compound 209, 4-(4-(2-acetamidoethoxy)phenyl)-1H-1,2,3-triazole-5-carboxylic acid] | 1000 to 10000
30 | O=C(O)c1[nH]nnc1-c1cc2ccc(F)cc2cn1 [Compound 210, 4-(7-fluoroisoquinolin-3-yl)-1H-1,2,3-triazole-5-carboxylic acid 2,2,2-trifluoroacetate] | 100 to 1000
31 | O=C(O)c1[nH]nnc1-c1cc2cc(OC(F)(F)F)ccc2cn1 [Compound 211, 4-(6-(trifluoromethoxy)isoquinolin-3-yl)-1H-1,2,3-triazole-carboxylic acid] | 1000 to 10000
32 | O=C(O)c1[nH]nnc1-c1ccc2c(n1)CCCC2 [Compound 212, 4-(5,6,7,8-tetrahydroquinolin-2-yl)-1H-1,2,3-triazole-5-carboxylic acid] | 1000 to 10000
33 | O=C(O)c1[nH]nnc1-c1cc2cc(F)ccc2cn1 [Compound 213, 4-(6-fluoroisoquinolin-3-yl)-1H-1,2,3-triazole-5-carboxylic acid 2,2,2-trifluoroacetate] | 1000 to 10000
34 | O=C(O)c1[nH]nnc1-c1cc2ccc(OC(F)(F)F)cc2cn1 [Compound 214, 4-(7-(trifluoromethoxy)isoquinolin-3-yl)-1H-1,2,3-triazole-5-carboxylic acid] | 100 to 1000
35 | O=C(O)c1[nH]nnc1-c1cc2ccc(C(F)(F)F)cc2cn1 [Compound 215, 4-(7-(trifluoromethyl)isoquinolin-3-yl)-1H-1,2,3-triazole-5-carboxylic acid] | 100 to 1000
36 | O=C(O)c1[nH]nnc1-c1cnc2cc(Cl)ccc2c1 [Compound 216, 4-(7-chloroquinolin-3-yl)-1H-1,2,3-triazole-5-carboxylic acid 2,2,2-trifluoroacetate] | < 100
37 | O=C(O)c1[nH]nnc1-c1cc(Cl)cc(OCC2CC2)c1 [Compound 217, 4-(3-chloro-5-(cyclopropylmethoxy)phenyl)-1H-1,2,3-triazole-5-carboxylic acid 2,2,2-trifluoroacetate] | < 100
38 | O=C(O)c1[nH]nnc1-c1ccc(Cl)c(OCC2CC2)c1 [Compound 218, 4-(4-chloro-3-(cyclopropylmethoxy)phenyl)-1H-1,2,3-triazole-5-carboxylic acid] | 100 to 1000
